This is an account of results in ChEMBL document CHEMBL4414648, “Novel Benzohydroxamate-Based Potent and Selective Histone Deacetylase 6 (HDAC6) Inhibitors Bearing a Pentaheterocyclic Scaffold: Design, Synthesis, and Biological Evaluation” (J Med Chem, 2019).

Bounds are passed on as bounds.

The nature of series [1]: Toxicity in C57BL/6 mouse assessed as effect on body weight at 30 mg/kg, ip administered for 5 days/week for two cycles and measured every other day relative to control. The format is organism-based. Conditions: in vivo, 120 h.
Series [2] in a line: Toxicity in C57BL/6 mouse assessed as effect on postural changes up to 50 mg/kg, ip administered for 5 days/week for two cycles and measured daily starting from day 1. The format is organism-based. Conditions: in vivo, 120 h.
The next series deals with Mus musculus. Description: In vivo inhibition of HDAC6 in C57BL/6 mouse assessed as increase in acetylated tubulin level in spleen cytosolic protein extract at 30 mg/kg, ip measured after 60 mins by ELISA relative to control. It is filed as functional. Background: In an ELISA, binding on a coated surface is turned into a signal by an enzyme label.
For series [3], the target named is T1, Protein deacetylase HDAC6 (Mus musculus) (UniProt Q9Z2V5).
T1 sequence (whole entry): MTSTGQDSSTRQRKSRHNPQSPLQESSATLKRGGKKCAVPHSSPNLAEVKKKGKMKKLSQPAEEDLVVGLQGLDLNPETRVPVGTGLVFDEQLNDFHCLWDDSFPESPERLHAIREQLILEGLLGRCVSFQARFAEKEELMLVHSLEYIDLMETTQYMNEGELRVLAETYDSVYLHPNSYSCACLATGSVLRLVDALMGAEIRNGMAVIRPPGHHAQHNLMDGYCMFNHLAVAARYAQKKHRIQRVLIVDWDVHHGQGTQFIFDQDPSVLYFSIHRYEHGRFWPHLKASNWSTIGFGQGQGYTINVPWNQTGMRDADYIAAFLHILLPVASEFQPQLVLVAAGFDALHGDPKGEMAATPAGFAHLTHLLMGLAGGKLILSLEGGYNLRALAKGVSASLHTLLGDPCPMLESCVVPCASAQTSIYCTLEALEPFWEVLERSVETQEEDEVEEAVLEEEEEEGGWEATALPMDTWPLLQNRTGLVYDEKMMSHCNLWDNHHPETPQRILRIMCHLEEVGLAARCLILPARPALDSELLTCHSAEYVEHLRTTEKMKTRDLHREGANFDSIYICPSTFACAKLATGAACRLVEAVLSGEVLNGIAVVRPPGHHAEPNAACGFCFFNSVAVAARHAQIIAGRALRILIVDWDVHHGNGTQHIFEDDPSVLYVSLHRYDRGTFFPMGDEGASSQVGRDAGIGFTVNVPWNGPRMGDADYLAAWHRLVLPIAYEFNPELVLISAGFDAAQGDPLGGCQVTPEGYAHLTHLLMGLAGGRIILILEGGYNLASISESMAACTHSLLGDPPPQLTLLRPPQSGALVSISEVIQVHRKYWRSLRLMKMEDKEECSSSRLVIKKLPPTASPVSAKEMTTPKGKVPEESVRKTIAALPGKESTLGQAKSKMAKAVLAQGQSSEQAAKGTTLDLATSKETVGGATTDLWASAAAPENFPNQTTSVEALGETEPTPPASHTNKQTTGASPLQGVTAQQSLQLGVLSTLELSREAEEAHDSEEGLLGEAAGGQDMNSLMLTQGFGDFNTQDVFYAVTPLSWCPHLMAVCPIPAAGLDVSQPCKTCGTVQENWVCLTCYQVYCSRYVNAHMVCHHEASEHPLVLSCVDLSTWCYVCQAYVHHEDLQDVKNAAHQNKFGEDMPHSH
Description: Inhibition of HDAC6 in C57BL/6 mouse regulatory T cells assessed as increase in Treg-mediated suppression of anti-CD3 induced CD4+ cell division at 500 nM after 72 hrs in presence mitomycin-treated APC by CFSE dye based flow cytometric assay relative to control. On the technique in general: A flow cytometer gives signals particle by particle.

The nature of series [4]: Selectivity ratio of IC50 for C-terminal His-tagged human HDAC8 expressed in baculovirus infected sf9 insect cells to IC50 for human N-terminal GST-tagged HDAC6 expressed in baculovirus infected sf9 insect cells.

In the case of `Cn1c(Sc2ccc(C(=O)NO)cc2)nnc1-c1cccs1`, the Activity in series [1] was 3.9%; in series [2] it was “Non-Toxic”. The entries for the “fold change (FC)” value (in the series on Mus musculus; in series [3]) were 10 and more than 1.5, respectively. The “Ratio IC50” value in series [4] was found to be 62.
